Patent US8334286B2, “Substituted pyrrolo[1,2-A] pyrazines, compositions containing these, processes of making these, and uses thereof” (Neurotune AG, priority 2008, dated 2012)

Assays:
[1] = test system: paclitaxel-induced hyperalgesia; assay: Paclitaxel-induced hyperalgesia in the rat (paw-pressure test); format: in vivo; details: PCT-treated rats, mean ± S.E.M.; for Mechanical threshold (g), After Treatment 15 min: 15 min after treatment; for Mechanical threshold (g), After Treatment 30 min: 30 min after treatment; for Mechanical threshold (g), After Treatment 45 min: 45 min after treatment
Description: In all methods, paw mechanical sensitivity was determined using either the paw pressure test or the incapacitance test. The paw pressure test utilizes a Randall & Selitto apparatus, exerting a force that increases at constant rate (32 g/s). The stimulus at which rats withdrawn the paw was evaluated before and at different times after treatment. Results represent the mean of mechanical thresholds expressed as grams. To avoid any possible damage to the animal paw the maximum applied force was fixed at 240 g. Peripheral neuropathy is induced by repeated administration of vincristine, paclitaxel or oxaliplatin to adult male Sprague-Dawley rats (150-200 g, supplier Harlan). The following protocols were used respectively: • Vincristine: the drug was injected by intravenous route at the dose of 150 μg/kg. The treatment was performed every 2 days, for 5 times, until a cumulative dose of 750 μg/kg was reached. Paw pressure test was performed 4 days after the last injection (Marchand F. et al. 2003, Brain Res. 980:117-120). • Paclitaxel: paclitaxel (PCT) neuropathy was induced by intraperitoneal administration of 0.5 mg/kg once a day, on days 1, 3, 5 and 8. Cumulative paclitaxel dose was 2 mg/kg. The pharmacological test was performed 14-18 days after the last paclitaxel injection (Polomano R. C. et al. 2001, Pain 94:293-304). • Oxaliplatin: 2.4 mg/kg were injected by intraperitoneal route for 5 consecutive days followed by 2 days suspension (one cicle). A total of 3 cycles was performed, reaching a cumulative dose of 36 mg/kg (Cavaletti G. 2001, Eur. J. Cancer 37:2457-2463). The test was performed 48 h after the last oxaliplatin injection. 2. Osteoarthritic Pain

Row | SMILES | melting point [°C] | Mechanical threshold (g), After Treatment 15 min ([1]; 3 mg/kg i.v.) [g] | Mechanical threshold (g), After Treatment 30 min ([1]; 3 mg/kg i.v.) [g] | Mechanical threshold (g), After Treatment 45 min ([1]; 3 mg/kg i.v.) [g] | Mechanical threshold (g), After Treatment 15 min ([1]; 1 mg/kg i.v.) [g] | Mechanical threshold (g), After Treatment 30 min ([1]; 1 mg/kg i.v.) [g] | Mechanical threshold (g), After Treatment 45 min ([1]; 1 mg/kg i.v.) [g]
1 | O=C1CC[C@@H]2CN(S(=O)(=O)c3cccc(C(F)(F)F)c3)CCN12 [Example 9, (R)-(+)-2-(3-(tifluoromethyl)phenylsulfonyl) hexahydropyrrolo [1,2-a]pyrazin-6(7H)-one] | 172 to 174 | 41.6 ± 3.6 | 44.5 ± 2.8 | 42.9 ± 4.3 |  |  | 
2 | O=C1CC[C@@H]2CN(S(=O)(=O)c3cccnc3)CCN12 [Example 16, (R)-2-(pyridin-3-ylsulfonyl)hexahydro pyrrolo[1,2-a]pyrazin-6(7H)-one] | 165 to 166 |  |  |  |  |  | 
3 | Cc1ccc(N2CCN3C(=O)CCC3C2=O)cc1 (centres unmarked) [Example 24, 2-p-Tolyl-tetrahydro-pyrrolo[1,2-a]pyrazine-1,6-dione] | 115 to 117 | 42.2 ± 2.6 | 43.4 ± 4.1 | 36.5 ± 4.2 |  |  | 
4 | O=C(c1cccc(F)c1)N1CCN2C(=O)CC[C@H]2C1 [Example 19, (S)-2-(3-fluorobenzoyl) hexahydropyrrolo [1,2-a]pyrazin-6(7H)-one] | 161 to 162 |  |  |  |  |  | 
5 | N#Cc1ccccc1S(=O)(=O)N1CCN2C(=O)CC[C@@H]2C1 [Example 11, (R)-2-(6-oxohexahydropyrrolo[1,2-a]pyrazin-2(1H)-ylsulfonyl) benzonitrile] | 198 to 199 | 45.3 ± 1.6 | 50.7 ± 2.3 | 48.4 ± 2.7 |  |  | 
6 | O=C1CC[C@@H]2CN(S(=O)(=O)c3ccc(C(F)(F)F)cc3)CCN12 [Example 10, (R)-(+)-2-(4-(trifluoromethyl)phenylsulfonyl) hexahydropyrrolo [1,2-a]pyrazin-6(7H)-one] | 226 to 227 |  |  |  |  |  | 
7 | N#Cc1cccc(S(=O)(=O)N2CCN3C(=O)CC[C@@H]3C2)c1 [Example 12, (R)-3-(6-oxohexahydropyrrolo[1,2-a]pyrazin-2(1H)-ylsulfonyl) benzonitrile] | 180 to 181 | 39.8 ± 3.7 | 41.5 ± 3.8 | 39.2 ± 4.4 |  |  | 

Now from value to compound, other results behind:

Row | melting point [°C] | SMILES | Mechanical threshold (g), After Treatment 15 min ([1]; 3 mg/kg i.v.) [g] | Mechanical threshold (g), After Treatment 30 min ([1]; 3 mg/kg i.v.) [g] | Mechanical threshold (g), After Treatment 45 min ([1]; 3 mg/kg i.v.) [g] | Mechanical threshold (g), After Treatment 15 min ([1]; 1 mg/kg i.v.) [g] | Mechanical threshold (g), After Treatment 30 min ([1]; 1 mg/kg i.v.) [g] | Mechanical threshold (g), After Treatment 45 min ([1]; 1 mg/kg i.v.) [g]
8 | 142 to 144 | O=C1CC[C@H]2CN(S(=O)(=O)c3ccccc3F)CCN12 [Example 1, (S)-(−)2-(2-fluorophenylsulfonyl)hexahydro pyrrolo[1,2-a]pyrazin-6(7H)-one] |  |  |  |  |  | 
9 | 68 to 70 | Cc1ccccc1S(=O)(=O)N1CCN2C(=O)CC[C@@H]2C1 [Example 6, (R)-(+)-2-(o-tolylsulfonyl)hexahydro pyrrolo[1,2-a]pyrazin-6(7H)-one] | 49.4 ± 3.0 | 48.8 ± 2.8 | 40.7 ± 2.2 |  |  | 
10 | 123 to 124 | O=C(c1ccccc1F)N1CCN2C(=O)CC[C@H]2C1 [Example 18, (S)-2-(2-fluorobenzoyl) hexahydropyrrolo [1,2-a]pyrazin-6(7H)-one] |  |  |  |  |  | 
11 | 123 to 124 | O=C(c1ccccc1F)N1CCN2C(=O)CC[C@@H]2C1 [Example 20, (R)-2-(2-fluorobenzoyl) hexahydropyrrolo [1,2-a]pyrazin-6(7H)-one] | 41.4 ± 2.3 | 45.7 ± 3.5 | 35.8 ± 3.0 |  |  | 
12 | 161 to 162 | O=C(c1cccc(F)c1)N1CCN2C(=O)CC[C@@H]2C1 [Example 21, (R)-2-(3-fluorobenzoyl) hexahydropyrrolo [1,2-a]pyrazin-6(7H)-one] | 40.9 ± 3.5 | 46.2 ± 4.3 | 37.6 ± 4.3 |  |  | 
13 | 144 to 145 | COc1cccc(S(=O)(=O)N2CCN3C(=O)CC[C@@H]3C2)c1 [Example 15, (R)-2-(3-methoxyphenylsulfonyl)hexahydro pyrrolo[1,2-a]pyrazin-6(7H)-one] |  |  |  |  |  | 
14 | 242 to 243 | N#Cc1ccc(S(=O)(=O)N2CCN3C(=O)CC[C@@H]3C2)cc1 [Example 13, (R)-(+)-4-(6-oxohexahydropyrrolo[1,2-a]pyrazin-2(1H)-ylsulfonyl) benzonitrile] |  |  |  | 35.6 ± 3.1 | 39.7 ± 2.4 | 34.8 ± 3.3
15 | 208 to 209 | O=C1CC[C@@H]2CN(S(=O)(=O)c3ccc(F)c(F)c3)CCN12 [Example 5, (R)-(+)-2-(3,4-difluorophenylsulfonyl)hexahydro pyrrolo[1,2-a]pyrazin-6(7H)-one] |  |  |  |  |  | 
16 | 133 to 134 | Cc1cccc(S(=O)(=O)N2CCN3C(=O)CC[C@@H]3C2)c1 [Example 7, (R)-(+)-2-(m-tolylsulfonyl)hexahydro pyrrolo[1,2-a]pyrazin-6(7H)-one] | 38.7 ± 2.2 | 47.6 ± 2.4 | 36.4 ± 2.5 |  |  | 
17 | 177 to 179 | O=C1CC[C@H]2CN(S(=O)(=O)c3cccc(F)c3)CCN12 [Example 2, (S)-(−)2-(3-fluorophenylsulfonyl)hexahydro pyrrolo[1,2-a]pyrazin-6(7H)-one] |  |  |  |  |  | 
